Assay results as given in PubChem BioAssay AID1845196 (Molecular Pharmacology Branch, DTP, NCI, 2023).
Several values for one entry are separate records, joined by “and”; a condition that tells them apart may be missing. Equal entries are not always repeated.

Test system: 292921-168-R tumor spheroid viability
Test: Anticancer human tumor 292921-168-R patient-derived pancreatic carcinoma cell line growth inhibition
Conditions: spheroids with HUVEC and MSC; for viability, T/C: stronger effect = lower value
In short: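 Complex spheroids of malignant cells with endothelial cells and mesenchymal stem cells; agents alone or combined, from near clinical Cmax (or 10 microM if unknown) down in half-log steps, 0.25% DMSO final.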

[1] = curve of first compound, second compound 30 pM
[2] = curve of first compound, second compound 94.9 pM
[3] = curve of first compound, second compound 0.0003 µM
[4] = curve of first compound, second compound 0.000949 µM
[5] = curve of first compound, second compound 0.003 µM
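Note: spheroids exposed to compounds for 7 days.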

`COc1cc(C)[nH]c(=O)c1CN1CCc2c(Cl)cc(C(OC)C3COC3)c(Cl)c2C1=O` (centres undefined) + COc1cc2c(cc1O)CCNC21CSC2c3c(OC(C)=O)c(C)c4c(c3C(COC1=O)N1C(O)C3Cc5cc(C)c(OC)c(O)c5C(C21)N3C)OCO4 was tested, and the IC50 [1] was over 10 µM, the IC50 [2] was over 10 µM and the IC50 [3] was 3.68 µM. For the same compound, the IC50 [4] was under 0.0316 µM, the IC50 [5] was under 0.0316 µM and the viability, T/C (second compound 30 pM, first compound 0.0316 µM) was 117%. For the same compound, the viability, T/C (second compound 30 pM, first compound 0.1 µM) was 116%, the viability, T/C (second compound 30 pM, first compound 0.316 µM) was 110% and the viability, T/C (second compound 30 pM, first compound 1 µM) was 114%. The viability, T/C (second compound 30 pM, first compound 3.16 µM) was 110%, the viability, T/C (second compound 30 pM, first compound 10 µM) was 92.4% and the viability, T/C (second compound 94.9 pM, first compound 0.0316 µM) was 117%. It also gave a viability, T/C (second compound 94.9 pM, first compound 0.1 µM) of 101%, a viability, T/C (second compound 94.9 pM, first compound 0.316 µM) of 117% and a viability, T/C (second compound 94.9 pM, first compound 1 µM) of 112%. It also gave a viability, T/C (second compound 94.9 pM, first compound 3.16 µM) of 94.8%, a viability, T/C (second compound 94.9 pM, first compound 10 µM) of 97.3% and a viability, T/C (second compound 0.0003 µM, first compound 0.0316 µM) of 49.4%. It also gave a viability, T/C (second compound 0.0003 µM, first compound 0.1 µM) of 53.3%, a viability, T/C (second compound 0.0003 µM, first compound 0.316 µM) of 54.1% and a viability, T/C (second compound 0.0003 µM, first compound 1 µM) of 58.3%. It also gave a viability, T/C (second compound 0.0003 µM, first compound 3.16 µM) of 51.2%, a viability, T/C (second compound 0.0003 µM, first compound 10 µM) of 36.5% and a viability, T/C (second compound 0.000949 µM, first compound 0.0316 µM) of 6.67%. It also gave a viability, T/C (second compound 0.000949 µM, first compound 0.1 µM) of 3.7%, a viability, T/C (second compound 0.000949 µM, first compound 0.316 µM) of 4.01% and a viability, T/C (second compound 0.000949 µM, first compound 1 µM) of 3.27%. The viability, T/C (second compound 0.000949 µM, first compound 3.16 µM) was 2.1%, the viability, T/C (second compound 0.000949 µM, first compound 10 µM) was 1.64% and the viability, T/C (second compound 0.003 µM, first compound 0.0316 µM) was 0.15%. The viability, T/C (second compound 0.003 µM, first compound 0.1 µM) was 0.14%, the viability, T/C (second compound 0.003 µM, first compound 0.316 µM) was 0.13% and the viability, T/C (second compound 0.003 µM, first compound 1 µM) was 0.14%. It also gave a viability, T/C (second compound 0.003 µM, first compound 3.16 µM) of 0.2% and a viability, T/C (second compound 0.003 µM, first compound 10 µM) of 0.26%.
`CNCc1ccc(-c2cc(-c3nc(-c4ccc(S(=O)(=O)C(C)C)cc4)cnc3N)on2)cc1` + COc1cc2c(cc1O)CCNC21CSC2c3c(OC(C)=O)c(C)c4c(c3C(COC1=O)N1C(O)C3Cc5cc(C)c(OC)c(O)c5C(C21)N3C)OCO4 showed an IC50 [1] of 0.193 µM, an IC50 [2] of 0.147 µM and an IC50 [3] of under 0.00949 µM. The IC50 [4] was under 0.00949 µM, the IC50 [5] was under 0.00949 µM and the viability, T/C (second compound 30 pM, first compound 0.00949 µM) was 96.9%. For the same compound, the viability, T/C (second compound 30 pM, first compound 0.03 µM) was 104%, the viability, T/C (second compound 30 pM, first compound 0.0949 µM) was 71.5% and the viability, T/C (second compound 30 pM, first compound 0.3 µM) was 36.8%. It also gave a viability, T/C (second compound 30 pM, first compound 0.949 µM) of 15.8%, a viability, T/C (second compound 30 pM, first compound 3 µM) of 13.2% and a viability, T/C (second compound 94.9 pM, first compound 0.00949 µM) of 100%. The viability, T/C (second compound 94.9 pM, first compound 0.03 µM) was 96.4%, the viability, T/C (second compound 94.9 pM, first compound 0.0949 µM) was 69% and the viability, T/C (second compound 94.9 pM, first compound 0.3 µM) was 19%. The viability, T/C (second compound 94.9 pM, first compound 0.949 µM) was 13.2%, the viability, T/C (second compound 94.9 pM, first compound 3 µM) was 8.91% and the viability, T/C (second compound 0.0003 µM, first compound 0.00949 µM) was 45.9%. The viability, T/C (second compound 0.0003 µM, first compound 0.03 µM) was 50.7%, the viability, T/C (second compound 0.0003 µM, first compound 0.0949 µM) was 28.6% and the viability, T/C (second compound 0.0003 µM, first compound 0.3 µM) was 14.5%. It also gave a viability, T/C (second compound 0.0003 µM, first compound 0.949 µM) of 10%, a viability, T/C (second compound 0.0003 µM, first compound 3 µM) of 8.68% and a viability, T/C (second compound 0.000949 µM, first compound 0.00949 µM) of 2.7%. The viability, T/C (second compound 0.000949 µM, first compound 0.03 µM) was 5.05%, the viability, T/C (second compound 0.000949 µM, first compound 0.0949 µM) was 4.26% and the viability, T/C (second compound 0.000949 µM, first compound 0.3 µM) was 4.15%. For the same compound, the viability, T/C (second compound 0.000949 µM, first compound 0.949 µM) was 3.65%, the viability, T/C (second compound 0.000949 µM, first compound 3 µM) was 0.18% and the viability, T/C (second compound 0.003 µM, first compound 0.00949 µM) was 0.18%. For the same compound, the viability, T/C (second compound 0.003 µM, first compound 0.03 µM) was 0.17%, the viability, T/C (second compound 0.003 µM, first compound 0.0949 µM) was 0.15% and the viability, T/C (second compound 0.003 µM, first compound 0.3 µM) was 0.2%. It also gave a viability, T/C (second compound 0.003 µM, first compound 0.949 µM) of 0.24% and a viability, T/C (second compound 0.003 µM, first compound 3 µM) of 0.16%.
In the case of `COc1cc(C)[nH]c(=O)c1CN1CCc2c(Cl)cc(C(OC)C3COC3)c(Cl)c2C1=O` (centres undefined), the viability, T/C (compound 0.0316 µM) is reported as 108% and 97.3% and 113%, the viability, T/C (compound 0.1 µM) is reported as 112% and 106% and 113% and the viability, T/C (compound 0.316 µM) is reported as 115% and 92.9% and 89.7%. The viability, T/C (compound 1 µM) was 109% and 95.4% and 97.2%, the viability, T/C (compound 3.16 µM) was 90.3% and 89.2% and 90.4% and the viability, T/C (compound 10 µM) was 101% and 89.8% and 75.1%. For the same compound, the IC50 (curve of compound) was over 10 µM.
With `O=C(c1cc(Cc2n[nH]c(=O)c3ccccc23)ccc1F)N1CCN(C(=O)C2CC2)CC1` the viability, T/C (compound 0.0949 µM) was 91.5% and 96.1% and 103%, the viability, T/C (compound 0.3 µM) was 102% and 99.1% and 96% and the viability, T/C (compound 0.949 µM) was 91.7% and 100% and 98.5%. The viability, T/C (compound 3 µM) was 87.8% and 89.6% and 92.7%, the viability, T/C (compound 9.49 µM) was 66.9% and 61.2% and 64.2% and the viability, T/C (compound 30 µM) was 39.4% and 35.8% and 35.6%. For the same compound, the IC50 (curve of compound) was 19.2 µM and 15.7 µM and 16.8 µM.
